Source: US10246429B2, “Vinyl fluoride cyclopropyl fused thiazin-2-amine compounds as beta-secretase inhibitors and methods of use” (AMGEN INC., priority 2015, dated 2019)

Tests used:
BACE1 [1] = target: T1, BACE1 (Homo sapiens (Human), UniProt P56817); assay: BACE1 cell assay; assay type: cell-based
Target sequence in this assay (P56817 46-501, species assumed): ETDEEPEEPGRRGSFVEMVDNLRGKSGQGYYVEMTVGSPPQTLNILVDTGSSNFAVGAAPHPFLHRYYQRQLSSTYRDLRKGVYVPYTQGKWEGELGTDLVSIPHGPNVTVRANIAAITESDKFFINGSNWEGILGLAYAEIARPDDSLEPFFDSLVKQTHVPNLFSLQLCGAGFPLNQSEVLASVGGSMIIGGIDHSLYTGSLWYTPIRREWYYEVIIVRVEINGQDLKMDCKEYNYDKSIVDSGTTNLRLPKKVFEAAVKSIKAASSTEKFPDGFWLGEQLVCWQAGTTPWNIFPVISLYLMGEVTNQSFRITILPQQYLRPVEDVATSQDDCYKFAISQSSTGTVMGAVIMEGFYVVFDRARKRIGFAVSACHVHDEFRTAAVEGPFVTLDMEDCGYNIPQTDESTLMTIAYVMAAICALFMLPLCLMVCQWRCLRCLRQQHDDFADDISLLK

Cathepsin D (CatD) = Cathepsin D (CatD) (Homo sapiens (Human), UniProt P07339); assay: CatD assay; assay type: biochemical; details: read-out: IC50 IP (μM) CatD
BACE1 [2] = target: T1, BACE1; assay: In vitro enzymatic BACE1 FRET assay; assay type: biochemical; details: read-out: IC50 IP (μM) BACE1 Enzyme
Target sequence in this assay (P56817 46-501): as the sequence (P56817 46-501, species assumed) above
Excerpt: (§1) In Vitro Enzymatic BACE1 and BACE2 FRET (Fluorescence Resonance Energy Transfer) Assays (Enzyme Assay Data in Table 1)

BACE2 = BACE2 (Homo sapiens (Human), UniProt Q9Y5Z0); assay: In vitro enzymatic BACE2 FRET assay; assay type: biochemical; details: read-out: IC50 IP (μM) BACE2 Enzyme
Sequence of BACE2 (Q9Y5Z0 63-518): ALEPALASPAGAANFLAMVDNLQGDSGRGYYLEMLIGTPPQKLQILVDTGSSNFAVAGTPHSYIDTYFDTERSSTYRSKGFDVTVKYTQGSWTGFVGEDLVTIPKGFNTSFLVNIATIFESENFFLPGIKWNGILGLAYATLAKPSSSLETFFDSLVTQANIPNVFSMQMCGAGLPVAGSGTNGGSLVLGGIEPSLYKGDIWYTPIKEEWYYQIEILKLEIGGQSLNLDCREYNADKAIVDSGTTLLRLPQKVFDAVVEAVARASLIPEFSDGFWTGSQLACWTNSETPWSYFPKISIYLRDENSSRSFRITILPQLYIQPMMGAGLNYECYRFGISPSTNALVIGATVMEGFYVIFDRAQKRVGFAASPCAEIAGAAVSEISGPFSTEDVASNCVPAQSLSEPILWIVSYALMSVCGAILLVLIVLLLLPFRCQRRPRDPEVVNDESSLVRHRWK
Excerpt: as §1

[3] = read-out: IC50 IP (μM) BACE1 Cell

Sequence of Cathepsin D (CatD) (P07339 65-412, species assumed): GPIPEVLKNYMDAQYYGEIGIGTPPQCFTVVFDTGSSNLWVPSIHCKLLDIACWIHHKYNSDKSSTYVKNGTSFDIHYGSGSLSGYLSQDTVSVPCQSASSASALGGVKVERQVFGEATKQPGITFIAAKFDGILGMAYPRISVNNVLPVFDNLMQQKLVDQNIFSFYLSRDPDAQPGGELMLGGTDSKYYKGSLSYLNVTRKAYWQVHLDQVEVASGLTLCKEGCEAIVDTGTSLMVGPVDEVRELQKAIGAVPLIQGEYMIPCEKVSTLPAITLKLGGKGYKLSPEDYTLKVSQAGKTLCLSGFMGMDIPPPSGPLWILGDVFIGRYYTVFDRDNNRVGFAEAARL

Row | SMILES | IC50 (BACE1 [1]) | IC50 (Cathepsin D (CatD)) | IC50 (BACE1 [2]) | IC50 (BACE2) | IC50 (BACE1 [1]; [3])
1 | C[C@]1(c2cc(/C=C(\F)c3ccc(Cl)cn3)ccc2F)N=C(N)S[C@@]2(C(N)=O)C[C@H]21 [Example 242, (1S,5S,6S)-3-amino-5-(5-((Z)-2-(5-chloropyridin-2-yl)-2-fluorovinyl)-2-fluorophenyl)-5-methyl-2-thia-4-azabicyclo[4.1.0]hept-3-ene-1-carboxamide] | 0.0181 µM | 205 µM | 0.0164 µM | 0.034 µM | –
2 | C[C@]1(c2cc(/C=C(\F)c3ccc(C#N)cn3)ccc2F)N=C(N)S[C@@]2(C(=O)N3Cc4ccccc4C3)C[C@H]21 [Example 129, 6-((Z)-2-(3-((1S,5S,6S)-3-amino-1-(isoindoline-2-carbonyl)-5-methyl-2-thia-4-azabicyclo[4.1.0]hept-3-en-5-yl)-4-fluorophenyl)-1-fluorovinyl)nicotinonitrile bis(2,2,2-trifluoroacetate)] | – | 133 µM | 0.00117 µM | 0.0311 µM | 0.0165 µM
3 | CN(C)C(=O)[C@]12C[C@H]1[C@@](C)(c1cc(/C(F)=C/c3ccc(C#N)cc3)ccc1F)N=C(N)S2 [Example 186, (1S,5S,6S)-3-amino-5-(5-((Z)-2-(4-cyanophenyl)-1-fluorovinyl)-2-fluorophenyl)-N,N,5-trimethyl-2-thia-4-azabicyclo[4.1.0]hept-3-ene-1-carboxamide] | – | 48.7 µM | 0.128 µM | 0.302 µM | 0.575 µM
4 | COC[C@]12C[C@H]1[C@@](C)(c1cc(/C=C(\F)c3cnc(OCC(F)(F)F)cn3)ccc1F)N=C(N)S2 [Example 267] | – | 209 µM | 0.112 µM | 1.73 µM | 0.559 µM
5 | CC1(C)CC2CC(C)(CN2C(=O)[C@]23C[C@H]2[C@@](C)(c2cc(/C=C(\F)c4ccc(C#N)cn4)ccc2F)N=C(N)S3)C1 (stereo partly drawn) [Example 136, 6-((Z)-2-(3-((1S,5S,6S)-3-amino-5-methyl-1-(1,3,3-trimethyl-6-azabicyclo[3.2.1]octane-6-carbonyl)-2-thia-4-azabicyclo[4.1.0]hept-3-en-5-yl)-4-fluorophenyl)-1-fluorovinyl)nicotinonitrile] | – | 4.18 µM | 0.00582 µM | 0.0363 µM | 0.0154 µM
6 | COC(=O)[C@]12C[C@H]1[C@@](C)(c1cc(/C=C(/F)c3ccc(Cl)cn3)cnc1F)N=C(N)S2 [Example 177, (1S,5S,6S)-methyl 3-amino-5-(5-((E)-2-(5-chloropyridin-2-yl)-2-fluorovinyl)-2-fluoropyridin-3-yl)-5-methyl-2-thia-4-azabicyclo[4.1.0]hept-3-ene-1-carboxylate] | – | 527 µM | 0.291 µM | 2.9 µM | 5.44 µM
7 | COC(=O)[C@H]1CCCN1C(=O)[C@]12C[C@H]1[C@@](C)(c1cc(/C=C(\F)c3ccc(C#N)cn3)ccc1F)N=C(N)S2 [Example 130, (R)-methyl 1-((1S,5S,6S)-3-amino-5-(5-((Z)-2-(5-cyanopyridin-2-yl)-2-fluorovinyl)-2-fluorophenyl)-5-methyl-2-thia-4-azabicyclo[4.1.0]hept-3-ene-1-carbonyl)pyrrolidine-2-carboxylate bis(2,2,2-trifluoroacetate)] | – | 120 µM | 0.0034 µM | 0.121 µM | 0.00747 µM
8 | C#CCOc1cnc(/C(F)=C/c2cnc(F)c([C@@]3(C)N=C(N)S[C@@]4(C(=O)N5CC[C@H](F)C5)C[C@H]43)c2)cn1 [Example 280, ((1S,5S,6S)-3-amino-5-(2-fluoro-5-((Z)-2-fluoro-2-(5-(prop-2-yn-1-yloxy)pyrazin-2-yl)vinyl)pyridin-3-yl)-5-methyl-2-thia-4-azabicyclo[4.1.0]hept-3-en-1-yl)((S)-3-fluoropyrrolidin-1-yl)methanone] | – | 115 µM | 0.0013 µM | 0.119 µM | 0.0016 µM
9 | CC#CCOc1cnc(/C(F)=C/c2cnc(F)c([C@@]3(C)N=C(N)S[C@@]4(C(=O)N(C)C)C[C@H]43)c2)cn1 [Example 289, (1S,5S,6S)-3-amino-5-(5-((Z)-2-(5-(but-2-yn-1-yloxy)pyrazin-2-yl)-2-fluorovinyl)-2-fluoropyridin-3-yl)-N,N,5-trimethyl-2-thia-4-azabicyclo[4.1.0]hept-3-ene-1-carboxamide] | – | 227 µM | 0.0008 µM | 0.022 µM | 0.002 µM
10 | CNC(=O)[C@]12C[C@H]1[C@@](C)(c1cc(/C=C(\F)c3ncc(C#N)cc3C)ccc1F)N=C(N)S2 [Example 225, (1S,5S,6S)-3-amino-5-(5-((Z)-2-(5-cyano-3-methylpyridin-2-yl)-2-fluorovinyl)-2-fluorophenyl)-N,5-dimethyl-2-thia-4-azabicyclo[4.1.0]hept-3-ene-1-carboxamide] | 0.033 µM | 198 µM | 0.027 µM | 0.621 µM | –
11 | CN(C)C(=O)[C@]12C[C@H]1[C@@](C)(c1cc(/C=C(\F)c3cnc(OCC#N)cn3)ccc1F)N=C(N)S2 [Example 158, (1S,5S,6S)-3-amino-5-(5-((Z)-2-(5-(cyanomethoxy)pyrazin-2-yl)-2-fluorovinyl)-2-fluorophenyl)-N,N,5-trimethyl-2-thia-4-azabicyclo[4.1.0]hept-3-ene-1-carboxamide] | – | 400 µM | 0.116 µM | 0.0927 µM | 0.119 µM
12 | COC[C@H]1COCCN1C(=O)[C@]12C[C@H]1[C@@](C)(c1cc(/C=C(\F)c3ccc(C#N)cn3)ccc1F)N=C(N)S2 [Example 328, 6-((Z)-2-(3-((1S,5S,6S)-3-amino-1-((S)-3-(methoxymethyl)morpholine-4-carbonyl)-5-methyl-2-thia-4-azabicyclo[4.1.0]hept-3-en-5-yl)-4-fluorophenyl)-1-fluorovinyl)nicotinonitrile] | – | 40.3 µM | 0.0023 µM | 0.085 µM | 0.0019 µM
13 | CNC(=O)[C@]12C[C@H]1[C@@](C)(c1cc(/C=C(\F)c3ccc(C(F)(F)F)cn3)ccc1F)N=C(N)S2 [Example 224, (1S,5S,6S)-3-amino-5-(2-fluoro-5-((Z)-2-fluoro-2-(5-(trifluoromethyl)pyridin-2-yl)vinyl)phenyl)-N,5-dimethyl-2-thia-4-azabicyclo[4.1.0]hept-3-ene-1-carboxamide] | 0.031 µM | 396 µM | 0.015 µM | 0.564 µM | –
14 | C[C@]1(c2cc(/C=C(\F)c3ccc(C#N)cn3)ccc2F)N=C(N)S[C@@]2(C(=O)N3CCOCC34CCC4)C[C@H]21 [Example 331, 6-((Z)-2-(3-((1S,5S,6S)-3-amino-5-methyl-1-(8-oxa-5-azaspiro[3.5]nonane-5-carbonyl)-2-thia-4-azabicyclo[4.1.0]hept-3-en-5-yl)-4-fluorophenyl)-1-fluorovinyl)nicotinonitrile] | – | 8.9 µM | 0.0013 µM | 0.061 µM | 0.0032 µM
15 | Cc1noc(COc2cnc(/C(F)=C/c3ccc(F)c([C@@]4(C)N=C(N)S[C@@]5(C(=O)N(C)C)C[C@H]54)c3)cn2)n1 [Example 217, (1S,5S,6S)-3-amino-5-(2-fluoro-5-((Z)-2-fluoro-2-(5-((3-methyl-1,2,4-oxadiazol-5-yl)methoxy)pyrazin-2-yl)vinyl)phenyl)-N,N,5-trimethyl-2-thia-4-azabicyclo[4.1.0]hept-3-ene-1-carboxamide] | – | 438 µM | 0.002 µM | 0.07 µM | 0.002 µM
16 | C[C@]1(c2cc(/C=C(\F)c3ccc(Cl)cn3)ccc2F)N=C(N)S[C@@]2(C(=O)Nc3ccccc3)C[C@H]21 [Example 118, (1S,5S,6S)-3-amino-5-(5-((Z)-2-(5-chloropyridin-2-yl)-2-fluorovinyl)-2-fluorophenyl)-5-methyl-N-phenyl-2-thia-4-azabicyclo[4.1.0]hept-3-ene-1-carboxamide] | – | 13.4 µM | 0.0299 µM | 0.047 µM | 0.291 µM
17 | C[C@]1(c2cc(/C=C(\F)c3ccc(C#N)cn3)ccc2F)N=C(N)S[C@@]2(C(=O)N3CCCC3c3ccccc3)C[C@H]21 (stereo partly drawn) [Example 337, 6-((Z)-2-(3-((1S,5S,6S)-3-amino-5-methyl-1-(2-phenylpyrrolidine-1-carbonyl)-2-thia-4-azabicyclo[4.1.0]hept-3-en-5-yl)-4-fluorophenyl)-1-fluorovinyl)nicotinonitrile] | – | 2.4 µM | 0.0044 µM | 0.046 µM | 0.01 µM
18 | CNC(=O)[C@]12C[C@H]1[C@@](C)(c1cc(/C=C(\F)c3cnc(C#CCF)cn3)ccc1F)N=C(N)S2 [Example 363, (1S,5S,6S)-3-amino-5-(2-fluoro-5-((Z)-2-fluoro-2-(5-(3-fluoroprop-1-yn-1-yl)pyrazin-2-yl)vinyl)phenyl)-N,5-dimethyl-2-thia-4-azabicyclo[4.1.0]hept-3-ene-1-carboxamide] | – | > 400 µM | 0.01 µM | 0.152 µM | 1.34 µM
19 | CN(C)C(=O)[C@]12C[C@H]1[C@@](C)(c1cc(/C=C(\F)c3cnc(OCc4ncco4)cn3)ccc1F)N=C(N)S2 [Example 154, (1S,5S,6S)-3-amino-5-(2-fluoro-5-((Z)-2-fluoro-2-(5-(oxazol-2-ylmethoxy)pyrazin-2-yl)vinyl)phenyl)-N,N,5-trimethyl-2-thia-4-azabicyclo[4.1.0]hept-3-ene-1-carboxamide] | – | 107 µM | 0.00798 µM | 0.0455 µM | 0.0049 µM
20 | C[C@]1(c2cc(/C=C(\F)c3ccc(C#N)cn3)ccc2F)N=C(N)S[C@@]2(C#N)C[C@H]21 [Example 245, (1S,5S,6S)-3-amino-5-(5-((Z)-2-(5-cyanopyridin-2-yl)-2-fluorovinyl)-2-fluorophenyl)-5-methyl-2-thia-4-azabicyclo[4.1.0]hept-3-ene-1-carbonitrile] | – | 400 µM | 0.005 µM | 0.057 µM | 0.0341 µM
